From PubChem BioAssay (NCI) come the findings set out here.

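Following 48 hours of exposure in 96-well plates, responses at five concentrations were used to interpolate endpoints linearly. At the GI50, growth is halved. TGI denotes the concentration required for complete inhibition of growth.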 Some results are limits rather than exact numbers.

Holding throughout (assay): inhibition of tumour cell growth, NCI panel, 48 h
Test [1] relates to HL-60(TB) leukemia.
The subject of test [2] is CCRF-CEM leukemia.
For test [3], the system named is K-562 leukemia.
For test [4], the system named is HOP-92 NSCLC.
For test [5], the system named is CAKI-1 renal.
Test [6] deals with NCI-H23 lung.
Test [7] concerns SNB-75 CNS.
Test [8] concerns NCI-H522 lung.
The subject of test [9] is BT-549 breast.
Test [10] deals with NCI/ADR-RES ovarian.

Consider `CC1CCC2(NC1)OC1CC3[C@@H]4CC=C5C=CCC[C@]5(C)C4CC[C@]3(C)C1C2C` (stereo not given in full), for which the TGI in test [1] is 29.7 µM; in test [2] it was 55.4 µM; in test [3], 46.6 µM; in test [4], 61.8 µM; in test [5] it was more than 100 µM; in test [6] it was more than 100 µM. The TGI in [7] is 80.6 µM.

With `CNS(=O)(=O)NN(C)S(=O)(=O)c1ccc(Cl)cc1`, the TGI in test [8], in test [1], in test [2], in test [3], in test [5] and in [6] was more than 100 µM throughout. In addition, the TGI in test [7] is more than 100 µM.

For the molecule `CC1=C(C)CC2(SC1)C(=O)c1ccccc1C2=O`, the TGI in [8], in test [1], in [2], in test [3], in [4] and in test [5] was more than 100 µM throughout. The TGI in test [7] was more than 100 µM.

Regarding `O=C(CC1(O)C(=O)Nc2ccc(Br)cc21)c1ccc(Cl)cc1` (stereo not given), the TGI in [8] was more than 100 µM; in test [2] it was more than 100 µM; in test [3], more than 100 µM; in test [4] it was 87.6 µM; in test [6] it was more than 100 µM; in test [7], 77.7 µM.

Regarding `O=c1[nH]c(=O)n(C2CC(O)C(CO)O2)cc1C(OCC(F)(F)F)OCC(F)(F)F` (stereo not given), the TGI in [8], in test [1], in [2], in test [3], in [4] and in [5] was more than 100 µM throughout. The TGI in test [6] and in test [7] was more than 100 µM each time.

Regarding `CN(C)/C=C/c1nnnn1-c1ccc(Cl)cc1`, the GI50 in test [9] was 8.56 µM; in test [8], 25.2 µM; in test [10], 10.2 µM; in [2] it was 4.65 µM; in test [3] it was 19.6 µM; in test [6] it was 11.8 µM. Also, in test [7], the GI50 was 25.1 µM. In addition, the TGI in test [9] is 38.7 µM; in [8] it was 64.8 µM; in [10], 36.3 µM; in test [2], 42.4 µM; in test [3], more than 100 µM; in test [6], 29.8 µM. The molecule further showed a TGI in test [7] of more than 100 µM.

As to `CCOC(=O)C(=O)C1C(=O)Nc2ccccc21` (stereo not given), the TGI in test [1], in [2], in test [3], in test [4], in test [5] and in test [6] was more than 100 µM throughout. In test [7], the TGI is more than 100 µM.

Regarding `CC(C)COC(=O)N1N=NC2C3OC(CC3=O)C21` (stereo not given), the TGI in test [8], in test [1], in [2], in test [3], in test [4] and in test [5] was more than 100 µM each time. In addition, the TGI in test [6] and in [7] was more than 100 µM throughout.

Consider `O=C1O[C@H](C(Cl)(Cl)Cl)N2CCCC12` (stereo not given in full), for which the TGI in test [8], in [1], in test [2], in test [3], in test [4] and in [5] was more than 100 µM each time. In addition, the TGI in test [6] and in [7] was more than 100 µM throughout.

`O=c1[nH]c(-c2ccccc2)nc2ccc(Cl)cc12`: the TGI in [8] was 95.7 µM; in test [3], more than 100 µM; in test [4], 84.1 µM; in test [5] it was more than 100 µM; in test [6], more than 100 µM.

Take `CCNc1c(C(=O)N(CC)CC)c(=O)[nH]c2ncccc12`: the TGI in [8], in test [1], in test [2], in test [3], in test [4] and in test [5] was more than 100 µM throughout. The TGI in test [6] and in test [7] was more than 100 µM throughout.

Turning to `CS(=O)(=O)N(CCC#N)c1ccc(/C=N/NC(=O)CC(=O)Nc2cccc(Cl)c2)cc1`, the TGI in test [8], in [2], in [3], in [5], in test [6] and in test [7] was more than 100 µM each time.

Take `CCN(CC)c1ccc(N=C2C=CC(=O)c3ncccc32)c(C)c1`: the TGI in test [1] is 5.15 µM; in test [2], 14.6 µM; in [3], 5.95 µM; in test [4], 19.7 µM; in test [5], 23.4 µM; in test [6], 18.6 µM. Besides, the TGI in test [7] came to 28.9 µM.

Regarding `O=C1CCC2CCc3cccc4oc1c2c34` (stereo not given), the TGI in [1] is more than 100 µM; in [2], more than 100 µM; in test [3], more than 100 µM; in test [4], 98.6 µM; in test [5], more than 100 µM; in [6] it was more than 100 µM. Moreover, the TGI in test [7] was more than 100 µM.

Take `O=[N+]([O-])c1cc(O)c(O)cc1-c1cn2ccsc2n1`: the GI50 in test [8] is 33 µM; in [10], 50.6 µM; in test [4] it was 97.2 µM; in [5] it was 38.4 µM; in test [6] it was 67.5 µM; in test [7], more than 100 µM. Further, the TGI in test [8], in test [10], in [4], in test [5], in test [6] and in [7] was more than 100 µM each time.

With `Cc1ccc(C(=O)O/N=C2/CCCCC2CN(C)C)cc1` (stereo not given), the TGI in test [8], in test [1], in test [2], in test [3], in test [4] and in [5] was more than 100 µM in each case. In addition, the TGI in test [6] and in test [7] was more than 100 µM throughout.

Consider `O=C(Cn1c(=O)c(-c2ccccc2)nc2ccccc21)c1cccnc1`, for which the GI50 in [8] is more than 100 µM; in test [10], more than 100 µM; in test [2] it was more than 100 µM; in [3], more than 100 µM; in test [4], 27.7 µM; in test [5], more than 100 µM. Further, the GI50 in test [6] was more than 100 µM. For the same molecule, the TGI in test [8], in test [10], in test [2], in test [3], in [4] and in test [5] was more than 100 µM in each case. For the same molecule, the TGI in test [6] is more than 100 µM.

Take `c1cc(C2CCCCC2)ccc1OCCCCCCN1CCNCC1`: the GI50 was 1.7 µM in test [8]; 1.54 µM in test [1]; 2.36 µM in test [10]; 1.51 µM in [2]; 1.46 µM in test [3]; 1.55 µM in test [4]. Besides, the GI50 was 2.01 µM in test [5], 1.96 µM in [6] and 1.83 µM in test [7]. Further, the TGI in test [8] came to 3.38 µM; in [1], 3.32 µM; in test [10] it was 5.14 µM; in [2] it was 3.39 µM; in test [3], 3.11 µM; in [4] it was 5.23 µM. The TGI in test [5] stood at 4.54 µM; in test [6] it was 3.82 µM; in test [7], 4.5 µM.

Regarding `N#CCCN(CCC#N)c1ccc(/C=C2\N=C(COc3ccc(Cl)cc3Cl)OC2=O)cc1`, the TGI in test [8], in test [1], in test [2], in [3], in test [5] and in [6] was more than 100 µM throughout. The molecule also gave a TGI in test [7] of more than 100 µM.

Regarding `O=C(O)CNS(=O)(=O)c1ccc(NC(=O)c2ccc(F)cc2)cc1`, the TGI in [1], in test [2], in [3], in [4], in test [5] and in [6] was more than 100 µM in each case. Further, the TGI in test [7] was more than 100 µM.

Consider `Cn1ccnc1C(c1nccn1C)C(C)(C)[N+](=O)[O-]`, for which the TGI in test [8], in test [1], in [2], in test [3], in test [4] and in test [5] was more than 100 µM in each case. This molecule also registered a TGI in test [7] of more than 100 µM.

`CCN(CC)CC(=O)/C=C/c1ccc(C)cc1`: the TGI is 52 µM in [1]; more than 100 µM in test [3]; 92.4 µM in [4]; 31.7 µM in [5]; more than 100 µM in test [6]; 55.1 µM in test [7].

Consider `COc1ccccc1/C=C1\CCC(CNc2ccc(Cl)cc2)C1=O` (stereo not given), for which the TGI is 4.45 µM in test [8]; 13.9 µM in test [1]; 19.7 µM in [2]; 19 µM in test [3]; 30.6 µM in [4]; 13.6 µM in [5]. Moreover, the results for the TGI in test [6] and in [7] were 20.8 µM and 29.9 µM, respectively.

With `C=CCC12CCC(=O)C=C1CCC1(C2)OCCO1` (stereo not given), the TGI in test [8], in test [1], in [2], in test [3], in test [5] and in [7] was more than 100 µM each time.

In the case of `OCCN(CCO)c1cccc(N(CCO)CCO)c1`, the TGI in [8], in test [1], in test [2], in [3], in [4] and in test [5] was more than 100 µM each time. Moreover, the TGI in test [6] and in test [7] was more than 100 µM in each case.

For `COc1ccc(C2=CC(c3cc(OC)c(OC)c(OC)c3)NC(=O)N2)cc1OC` (stereo not given), the GI50 was 2.78 µM in test [8]; 1.57 µM in test [1]; 3.02 µM in test [10]; 2.65 µM in test [2]; 1.96 µM in test [3]; 12.5 µM in [4]. In addition, the values for the GI50 in test [5], in [6] and in test [7] were 2.26 µM, 3.48 µM and 2.42 µM, respectively. In addition, the TGI in test [8] is 11.2 µM; in test [1], 6.52 µM; in test [10] it was more than 100 µM; in [2], 11 µM; in test [3] it was 24.5 µM; in [4], more than 100 µM. The TGI in test [5] came out at 9.32 µM; in test [6] it was 17.5 µM; in [7], 7.95 µM.

As to `N=S(=O)(c1ccccc1)c1ccccc1[N+](=O)[O-]` (stereo not given), the TGI in test [8], in test [1], in test [2], in test [3], in test [5] and in test [6] was more than 100 µM throughout. This molecule displayed a TGI in test [7] of more than 100 µM.

For `Oc1ccc2occ3c2c1CCC3`, the TGI was more than 100 µM in [1]; more than 100 µM in test [2]; more than 100 µM in test [3]; 80.1 µM in test [4]; more than 100 µM in test [5]; more than 100 µM in [6]. The same molecule came in with a TGI in [7] of more than 100 µM.

Take `CN(C)c1ccc(/C=C/C(=O)C(C)(C)C)cc1Br`: the TGI in test [8] stood at 31.9 µM; in [2], 85.1 µM; in [3], 86.3 µM; in test [5], 91.9 µM; in [6] it was 75.9 µM; in test [7], 70.3 µM.

Consider `NC(N)=N/N=C/c1c(-c2cccs2)nc2sccn12`, for which the GI50 is 19.3 µM in [9]; 12.8 µM in [1]; 14.5 µM in [10]; 1.61 µM in test [2]; 6.49 µM in test [3]; 2.57 µM in test [5]. In addition, the values for the GI50 in test [6] and in test [7] were 14.3 µM and 5.66 µM, respectively. The TGI in [9] amounted to 33.6 µM; in test [1], 39 µM; in [10], 27.6 µM; in [2], 27.1 µM; in test [3], 21.5 µM; in test [5], 16 µM. The results for the TGI in test [6] and in test [7] were 29 µM and 17.1 µM, respectively.
